Experimental findings from US11891455B2, “Polymorph form of (r)-2-[2-amino-3-(indol-3-yl)propionylamino]-2- methylpropionic acid and uses thereof” (Galimedix Therapeutics Inc., priority 2019, dated 2024) are described below.

Holding throughout (assay type): physicochemical
Data set [1] is described as follows: Solubility test in water (visual check). The note with it: for solubility in water (in words): visual check. Here is the method:
To a three necked 1 L flask equipped with stirrer and thermometer, 60.0 g (207.4 mmol) of (R)-2-[2-amino-3-(indol-3-yl)propionylamino]-2-methylpropionic acid, which is as synthesized by methods as described herein, e.g., at Examples 6 and 11, or by the method as previously described in U.S. Patent Application Publication No. 2006/0234947, was added to a mixture of 167.0 mL of water and 21.0 mL of concentrated hydrochloric acid, resulting in the formation of a yellowish brown solution. The pH of the solution was set to 5.6 with 53.0 mL of a 20% NaOH solution at 0-5° C. About 30 minutes later, the crystallization started at 0-5° C. The suspension was stirred overnight at 0-5° C. The suspension was filtered on a pre-chilled funnel. As an in-process control, the solubility of a part of the filter cake in water was checked. […] Form II of (R)-2-[2-Amino-3-(indol-3-yl)propionylamino]-2-methylpropionic acid was isolated and dried at 0-5° C. over P2O5.
To a three necked 6 L flask equipped with overhead stirrer, thermometer, and pH meter, 1189.0 g of wet […] from Step 1 was dissolved in a mixture of 1715.0 mL of water and 250.0 mL of concentrated HCl. The mixture was stirred at 5-10° C. and the pH of the solution was adjusted to 5.6 with 665.0 mL of a 20% NaOH solution maintaining the temperature at 5-10° C. After 30 minutes of stirring, the crystallization began. The resulting suspension was stirred at 0-5° C. overnight. The precipitate was collected by filtration. This collected Form II was suspended in 1.2 L of water and heated to 30-35° C. for two hours. At the beginning, the solid partly dissolved, then precipitated again. […] The suspension was cooled to room temperature (20-25° C.), filtered and washed with 400 mL and 800 mL of water, subsequently then dried at 60-65° C. to constant weight.

The nature of data set [2]: Microscopy study of the transition of Form II to Form I. The note with it: 30-35° C., polarized light microscope. The procedure:
Transition of wet Form II to Form I was observed through a MOTIC BA300 microscope (as shown in FIGS. 6-10) under polarized light. The transition from wet Form II to Form I proceeded rapidly. The large Form II crystals transformed to small crystals at 30-35° C. within 2 minutes. The crystals of Form II are large plates. The observed crystal form explains the observed thixotropic property of the suspension of Form II. Form I consists of uniform rounded crystals.

Data set [3] is described as follows: Transition of Form II to Form I followed by X-ray powder diffraction. Here is the method:
X-ray powder diffraction (XRPD) patterns were obtained in a Philips model PW 3710 based PW 1050 Bragg-Brentano parafocusing goniometer using CuKa radiation (l=0.15418 nm), graphite monochromator and proportional counter. The XRD scans were digitally recorded in the […] of 3-35deg with a step size of 0.04deg.
Form II was measured at 20-25° C. (long dashed line), then heated at 30-35 for 15 minutes (solid line), then another 60 minutes (dotted line) (FIG. 2). Form I was also measured (short dashed line). According to the measurements, Form II is highly crystalline and strongly oriented (it forms large plates).
The transition of Form II (dark grey line) to Form I (black line) was complete at 50-60° C. within 30 minutes (FIG. 3). The reference diffractogram of Form I is shown in grey.

Data set [4] can be described thus: Transition of Form II to Form I / product stability as a function of temperature. The procedure:
At a higher temperature (e.g., 40-50° C.) significant degradation of the product is observed. Further, the isolated yield (45%-50% instead of 60%) and the efficiency of the purification are slightly lower (98.9 area %) at −5° C. than at 0-5° C. […] During the filtration step, the thick suspension could be warmed up and partly dissolves Form II of the compound and decreases the yield.
The complete transition from GAL-101 Form II to GAL-101 Form I is detected at room temperature (20-25° C.) within 15 minutes. The transition can start at above 10° C. The transition can be followed by microscope, the large metastable crystals transform to small crystals within a few minutes at ambient temperature (FIGS. 6-14).

Peptide text beside a SMILES is read from it.

With `CC(C)(NC(=O)[C@H](N)Cc1c[nH]c2ccccc12)C(=O)O` [GAL-101 Form II, (R)-2-[2-amino-3-(indol-3-yl)propionylamino]-2-methylpropionic acid] (HELM PEPTIDE1{[dW].[Aib]}$$$$V2.0), the “water needed to dissolve (water solubility)” value in data set [1] (room temperature) is on record as “about 4 volumes of water”. In addition, the figures for the “solubility in water (in words)” value in data set [1] and in data set [1] (listed as form II) were “high water solubility” and “Immediately dissolving”, respectively. Further, the “time for large Form II crystals to transform to small crystals (wet Form II to Form I)” value in data set [2] is at most 2 min. The “time to complete transition of Form II to Form I (XRPD)” value in data set [3] (50-60° C.) was at most 30 min. For the same molecule, in data set [3] (dry state, 30-35° C.), the “conversion of Form II to Form I in dry state (XRPD)” value is “converts gradually to Form I”. Besides, the “temperature above which the transition Form II to Form I can start” value in data set [4] was “above 10 °C”. Also, in data set [4] (above 30° C.), the “speed of transformation to Form I (in words)” value is given as “very rapidly”. Moreover, the “time to complete transition from Form II to Form I” value in data set [4] (room temperature (20-25° C.)) is at most 15 min.
In the case of `CC(C)(NC(=O)[C@H](N)Cc1c[nH]c2ccccc12)C(=O)O` [GAL-101 Form I, (R)-2-[2-amino-3-(indol-3-yl)propionylamino]-2-methylpropionic acid] (HELM PEPTIDE1{[dW].[Aib]}$$$$V2.0), the “solubility in water (in words)” value in data set [1] (listed as Form I) is given as “almost insoluble in water”.
